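Step 1: Grow cells in 96-well plates. Step 2: Expose to compound for 48 hours at 5 concentrations. Step 3: Interpolate endpoints linearly; if unreached, use highest concentration. Definition used: TGI = concentration required for complete inhibition of growth.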 The source made the active and inactive calls. Cut-off read from the data, not from the text of the source: active = GI50 below about 0.43 µM; inactive = the rest.
Columns and labels:
Assay in all cases: growth of human tumour cells (NCI), 48 h
786-0 renal = tested on: 786-0 renal
A498 renal = tested on: A498 renal
A549 NSCLC = tested on: A549 NSCLC
ACHN renal = tested on: ACHN renal
BT-549 breast = tested on: BT-549 breast
CAKI-1 renal = tested on: CAKI-1 renal
CCRF-CEM leukemia = tested on: CCRF-CEM leukemia
COLO 205 colon = tested on: COLO 205 colon
DU-145 prostate = tested on: DU-145 prostate
EKVX NSCLC = tested on: EKVX NSCLC
HCC-2998 colon = tested on: HCC-2998 colon
HCT-116 colon = tested on: HCT-116 colon
HCT-15 colon = tested on: HCT-15 colon
HL-60(TB) leukemia = tested on: HL-60(TB) leukemia
HOP-92 NSCLC = tested on: HOP-92 NSCLC
HS 578T breast = tested on: HS 578T breast
IGROV1 ovarian = tested on: IGROV1 ovarian
K-562 leukemia = tested on: K-562 leukemia
KM12 colon = tested on: KM12 colon
LOX IMVI melanoma = tested on: LOX IMVI melanoma
M14 melanoma = tested on: M14 melanoma
MALME-3M melanoma = tested on: MALME-3M melanoma
MCF7 breast = tested on: MCF7 breast
MDA-MB-231 breast = tested on: MDA-MB-231 breast
MDA-MB-435 = tested on: MDA-MB-435
MDA-N = tested on: MDA-N
MOLT-4 leukemia = tested on: MOLT-4 leukemia
NCI-H23 lung = tested on: NCI-H23 lung
NCI-H460 lung = tested on: NCI-H460 lung
NCI-H522 lung = tested on: NCI-H522 lung
NCI/ADR-RES ovarian = tested on: NCI/ADR-RES ovarian
OVCAR-3 ovarian = tested on: OVCAR-3 ovarian
OVCAR-4 ovarian = tested on: OVCAR-4 ovarian
OVCAR-5 ovarian = tested on: OVCAR-5 ovarian
OVCAR-8 ovarian = tested on: OVCAR-8 ovarian
RPMI-8226 leukemia = tested on: RPMI-8226 leukemia
SF-268 CNS = tested on: SF-268 CNS
SF-295 CNS = tested on: SF-295 CNS
SF-539 CNS = tested on: SF-539 CNS
SK-MEL-2 melanoma = tested on: SK-MEL-2 melanoma
SK-MEL-28 melanoma = tested on: SK-MEL-28 melanoma
SK-OV-3 ovarian = tested on: SK-OV-3 ovarian
SN12C renal = tested on: SN12C renal
SNB-19 CNS = tested on: SNB-19 CNS
SNB-75 CNS = tested on: SNB-75 CNS
SR leukemia = tested on: SR leukemia
SW-620 colon = tested on: SW-620 colon
T-47D breast = tested on: T-47D breast
TK-10 renal = tested on: TK-10 renal
U251 CNS = tested on: U251 CNS
UACC-257 melanoma = tested on: UACC-257 melanoma
UACC-62 melanoma = tested on: UACC-62 melanoma
UO-31 renal = tested on: UO-31 renal
HT29 colon = tested on: HT29 colon
NCI-H226 lung = tested on: NCI-H226 lung
PC-3 prostate = tested on: PC-3 prostate
HOP-62 NSCLC = tested on: HOP-62 NSCLC
RXF 393 renal = tested on: RXF 393 renal
SK-MEL-5 melanoma = tested on: SK-MEL-5 melanoma

Molecule COC(=O)CCCC(=O)NC1=C(Nc2ccc(OC)cc2)C(=O)c2ccccc2C1=O has a TGI (786-0 renal) of over 100 µM, a TGI (A498 renal) of 84.4 µM and a TGI (A549 NSCLC) of 42.7 µM. The TGI (ACHN renal) was 91.5 µM, the TGI (BT-549 breast) was 35.4 µM and the TGI (CAKI-1 renal) was over 100 µM. The TGI (CCRF-CEM leukemia) was 58.2 µM, the TGI (COLO 205 colon) was over 100 µM and the TGI (DU-145 prostate) was 31.7 µM. The TGI (EKVX NSCLC) was 51.3 µM, the TGI (HCC-2998 colon) was over 100 µM and the TGI (HCT-116 colon) was 43.2 µM. It also gave a TGI (HCT-15 colon) of 89 µM, a TGI (HL-60(TB) leukemia) of 54.5 µM and a TGI (HOP-92 NSCLC) of over 100 µM. For the same molecule, the TGI (HS 578T breast) was 57.8 µM, the TGI (IGROV1 ovarian) was 36.8 µM and the TGI (K-562 leukemia) was 70.1 µM. It also gave a TGI (KM12 colon) of over 100 µM, a TGI (LOX IMVI melanoma) of 92.8 µM and a TGI (M14 melanoma) of 33.7 µM. It also gave a TGI (MALME-3M melanoma) of 13.5 µM, a TGI (MCF7 breast) of 35.4 µM and a TGI (MDA-MB-231 breast) of 82.9 µM. It also gave a TGI (MDA-MB-435) of 32.1 µM, a TGI (MDA-N) of 41.2 µM and a TGI (MOLT-4 leukemia) of 60.4 µM. It also gave a TGI (NCI-H23 lung) of 51.5 µM, a TGI (NCI-H460 lung) of 36.6 µM and a TGI (NCI-H522 lung) of over 100 µM. For the same molecule, the TGI (NCI/ADR-RES ovarian) was 71.1 µM, the TGI (OVCAR-3 ovarian) was 31.3 µM and the TGI (OVCAR-4 ovarian) was 34.6 µM. The TGI (OVCAR-5 ovarian) was 33.2 µM, the TGI (OVCAR-8 ovarian) was over 100 µM and the TGI (RPMI-8226 leukemia) was over 100 µM. The TGI (SF-268 CNS) was over 100 µM, the TGI (SF-295 CNS) was 88.4 µM and the TGI (SF-539 CNS) was 36.1 µM. The TGI (SK-MEL-2 melanoma) was 37.8 µM, the TGI (SK-MEL-28 melanoma) was 44.9 µM and the TGI (SK-OV-3 ovarian) was 82.6 µM. It also gave a TGI (SN12C renal) of 74.2 µM, a TGI (SNB-19 CNS) of over 100 µM and a TGI (SNB-75 CNS) of 65.6 µM. It also gave a TGI (SR leukemia) of over 100 µM, a TGI (SW-620 colon) of over 100 µM and a TGI (T-47D breast) of over 100 µM. It also gave a TGI (TK-10 renal) of over 100 µM, a TGI (U251 CNS) of 80.9 µM and a TGI (UACC-257 melanoma) of 36.1 µM. The TGI (UACC-62 melanoma) was 25.3 µM and the TGI (UO-31 renal) was over 100 µM.
COC(=O)c1nc2c(C)c(O)c(Oc3c(C)c(O)c(O)c([C@H](C)CCC=C(C)C)c3O)c([C@H](C)CCC=C(C)C)c2o1 was tested, and the outcome (786-0 renal) was “inactive”, the outcome (A498 renal) was “inactive” and the outcome (A549 NSCLC) was “inactive”. For the same molecule, the outcome (ACHN renal) was “inactive”, the outcome (BT-549 breast) was “inactive” and the outcome (CAKI-1 renal) was “inactive”. For the same molecule, the outcome (CCRF-CEM leukemia) was “inactive”, the outcome (COLO 205 colon) was “inactive” and the outcome (DU-145 prostate) was “inactive”. The outcome (EKVX NSCLC) was “inactive”, the outcome (HCC-2998 colon) was “inactive” and the outcome (HCT-116 colon) was “inactive”. The outcome (HCT-15 colon) was “inactive”, the outcome (HL-60(TB) leukemia) was “inactive” and the outcome (HOP-92 NSCLC) was “inactive”. For the same molecule, the outcome (HS 578T breast) was “inactive”, the outcome (HT29 colon) was “inactive” and the outcome (IGROV1 ovarian) was “inactive”. For the same molecule, the outcome (K-562 leukemia) was “inactive”, the outcome (KM12 colon) was “inactive” and the outcome (LOX IMVI melanoma) was “inactive”. For the same molecule, the outcome (M14 melanoma) was “inactive”, the outcome (MALME-3M melanoma) was “inactive” and the outcome (MCF7 breast) was “inactive”. The outcome (MDA-MB-435) was “inactive”, the outcome (MDA-N) was “inactive” and the outcome (MOLT-4 leukemia) was “inactive”. For the same molecule, the outcome (NCI-H226 lung) was “inactive”, the outcome (NCI-H23 lung) was “inactive” and the outcome (NCI-H460 lung) was “inactive”. For the same molecule, the outcome (NCI/ADR-RES ovarian) was “inactive”, the outcome (OVCAR-3 ovarian) was “inactive” and the outcome (OVCAR-4 ovarian) was “inactive”. The outcome (OVCAR-5 ovarian) was “inactive”, the outcome (OVCAR-8 ovarian) was “inactive” and the outcome (PC-3 prostate) was “inactive”. For the same molecule, the outcome (RPMI-8226 leukemia) was “inactive”, the outcome (SF-268 CNS) was “inactive” and the outcome (SF-295 CNS) was “inactive”. For the same molecule, the outcome (SF-539 CNS) was “inactive”, the outcome (SK-MEL-2 melanoma) was “inactive” and the outcome (SK-MEL-28 melanoma) was “inactive”. The outcome (SK-OV-3 ovarian) was “inactive”, the outcome (SN12C renal) was “inactive” and the outcome (SNB-19 CNS) was “inactive”. For the same molecule, the outcome (SNB-75 CNS) was “inactive”, the outcome (SR leukemia) was “inactive” and the outcome (SW-620 colon) was “inactive”. The outcome (T-47D breast) was “inactive”, the outcome (TK-10 renal) was “inactive” and the outcome (UACC-257 melanoma) was “inactive”. The outcome (UO-31 renal) was “inactive”.
Work on CCOC(=O)CCC(C(=O)OCC)n1nnc2ccc(Nc3c(C)[n+]([O-])c4ccc(Cl)cc4[n+]3[O-])cc21 (stereo unspecified) yielded a TGI (786-0 renal) of over 100 µM, a TGI (A498 renal) of over 100 µM and a TGI (A549 NSCLC) of over 100 µM. For the same molecule, the TGI (ACHN renal) was over 100 µM, the TGI (BT-549 breast) was over 100 µM and the TGI (CAKI-1 renal) was over 100 µM. The TGI (CCRF-CEM leukemia) was over 100 µM, the TGI (COLO 205 colon) was over 100 µM and the TGI (DU-145 prostate) was over 100 µM. The TGI (EKVX NSCLC) was 69.3 µM, the TGI (HCT-116 colon) was over 100 µM and the TGI (HCT-15 colon) was over 100 µM. For the same molecule, the TGI (HL-60(TB) leukemia) was over 100 µM, the TGI (HOP-62 NSCLC) was over 100 µM and the TGI (HOP-92 NSCLC) was over 100 µM. It also gave a TGI (HS 578T breast) of over 100 µM, a TGI (HT29 colon) of over 100 µM and a TGI (IGROV1 ovarian) of over 100 µM. The TGI (K-562 leukemia) was over 100 µM, the TGI (KM12 colon) was over 100 µM and the TGI (LOX IMVI melanoma) was over 100 µM. For the same molecule, the TGI (M14 melanoma) was over 100 µM, the TGI (MALME-3M melanoma) was over 100 µM and the TGI (MCF7 breast) was 50.4 µM. The TGI (MDA-MB-435) was over 100 µM, the TGI (MDA-N) was over 100 µM and the TGI (MOLT-4 leukemia) was over 100 µM. It also gave a TGI (NCI-H226 lung) of 83.7 µM, a TGI (NCI-H23 lung) of over 100 µM and a TGI (NCI-H460 lung) of over 100 µM. For the same molecule, the TGI (NCI-H522 lung) was over 100 µM, the TGI (NCI/ADR-RES ovarian) was over 100 µM and the TGI (OVCAR-3 ovarian) was over 100 µM. The TGI (OVCAR-4 ovarian) was over 100 µM, the TGI (OVCAR-5 ovarian) was over 100 µM and the TGI (OVCAR-8 ovarian) was over 100 µM. The TGI (PC-3 prostate) was over 100 µM, the TGI (RPMI-8226 leukemia) was 88.3 µM and the TGI (RXF 393 renal) was over 100 µM. For the same molecule, the TGI (SF-268 CNS) was over 100 µM, the TGI (SF-295 CNS) was over 100 µM and the TGI (SF-539 CNS) was over 100 µM. It also gave a TGI (SK-MEL-2 melanoma) of over 100 µM, a TGI (SK-MEL-5 melanoma) of over 100 µM and a TGI (SK-OV-3 ovarian) of over 100 µM. It also gave a TGI (SN12C renal) of over 100 µM, a TGI (SNB-19 CNS) of over 100 µM and a TGI (SNB-75 CNS) of over 100 µM. It also gave a TGI (SR leukemia) of over 100 µM, a TGI (SW-620 colon) of over 100 µM and a TGI (T-47D breast) of over 100 µM. For the same molecule, the TGI (TK-10 renal) was over 100 µM, the TGI (U251 CNS) was over 100 µM and the TGI (UACC-257 melanoma) was 37.1 µM. It also gave a TGI (UACC-62 melanoma) of over 100 µM and a TGI (UO-31 renal) of over 100 µM.

Reference: PubChem BioAssay (NCI)
